Assay results from US4454065A, “Oligopeptide prodrugs” (SmithKline Beckman Corporation, priority 1983, dated 1984).
In brackets after ≈: the same amount, converted by molar mass. Where two headings read alike, the source gives them in different places.

Columns and labels:
[1] = test system: hog kidney leucine aminopeptidase; test: Enzyme catalyzed warhead release (Ellman reagent, 412 nm); type: biochemical; conditions: for λ(412) absorbance: enzyme added
Protocol: (§1) The release was maintained at a linear rate over the observation period (5 min). […] This observation is consistent with literature reports of the optimal pH necessary for the efficacy of this enzyme.
(§2) These observations were obtained by colorimetric assay, which involves the reaction between a free sulfhydryl group and 5,5'-dithio-bis(2-nitrobenzoic acid), the Ellman reagent, to produce a yellow color as follows: [drawing 12]
(§3) The peptide from Example 4 was dissolved in 4 mM of phosphate buffer solution (pH 7) containing in Ellman reagent at a level of 4 mg/ml to produce a 1 mM solution of the peptide. The resulting mixture was monitored using a spectrophotometer at a wavelength of 412 nm. To 1 ml of this solution was added 100 μg of hog kidney leucine aminopeptidase (Sigma) and the enzymatic hydrolysis was continuously monitored at 412 nm.
(§4) Reaction mixture contained 1 mM peptide, Ellman's reagent 4 mg/ml, phosphate buffer 4 mM (pH 7).

[2] = Stability in aqueous phosphate buffer, spontaneous warhead release (Ellman reagent, 412 nm); type: physicochemical; conditions: for λ(412) absorbance: before enzyme
Protocol: as §1, §2, §3, §4

[3] = test system: hog kidney leucine aminopeptidase; test: Enzyme catalyzed warhead release (Ellman reagent, 412 nm); type: biochemical; conditions: pH 7.5
C. albicans = test: Minimum inhibitory concentration, two-fold broth dilution (Method/Test B); type: cell-based, Candida albicans
Protocol: (§5) B. Fungi [Minimum inhibitory […] (MIC)]:
(§6) The minimum inhibitory concentration of the test compound was determined by two-fold broth dilution tests in yeast carbon base medium, containing 200 μg/ml of sodium glutamate. The compounds were diluted from […] to 0.25 μg/ml and the test medium was inoculated with a suspension of C. albicans grown in the same medium for 15 hours at 37°. The final inoculum sizes in the tests we approximately 10^4 cfu/ml and 10^3 cfu/ml. The tubes were incubated at 37° for 24 and 48 hours and observed for inhibition.

Candida albicans = test: Disk diffusion method, fungi (Method/Test A); type: cell-based; conditions: for zone (Test A, disk diffusion; quantity not given): C. albicans B-311; for zone size: C. albicans
Protocol: (§7) A. Fungi (Disk diffusion method):
(§8) Candida albicans strains B-311 and BC 759, obtained from Smith Kline and French Laboratory Culture Collection were grown in a trypticase soy broth at 28° for 7 hours. The seeded plates, with this medium containing 1.5% agar, were prepared by inoculating 1 ml of the inoculum in 1 l. of yeast-carbon base medium, containing 200 μg/ml of lysine or glutamate as a sole source of nitrogen.

Fasciola hepatica = conditions: mice, subcutaneously 15 mg/kg for eight days; compared with albendazole
Caenorhabditis elegans = conditions: concentrations of 10 and 100 μg/ml
Nematospiroides dubius = conditions: mice, subcutaneously 15 mg/kg for eight days; compared with albendazole
aminopeptidase M = aminopeptidase M (Homo sapiens, UniProt P15144); test: Detector peptide as enzyme substrate, aminopeptidase M; type: biochemical
aminopeptidase M, sequence (P15144 whole entry, species assumed): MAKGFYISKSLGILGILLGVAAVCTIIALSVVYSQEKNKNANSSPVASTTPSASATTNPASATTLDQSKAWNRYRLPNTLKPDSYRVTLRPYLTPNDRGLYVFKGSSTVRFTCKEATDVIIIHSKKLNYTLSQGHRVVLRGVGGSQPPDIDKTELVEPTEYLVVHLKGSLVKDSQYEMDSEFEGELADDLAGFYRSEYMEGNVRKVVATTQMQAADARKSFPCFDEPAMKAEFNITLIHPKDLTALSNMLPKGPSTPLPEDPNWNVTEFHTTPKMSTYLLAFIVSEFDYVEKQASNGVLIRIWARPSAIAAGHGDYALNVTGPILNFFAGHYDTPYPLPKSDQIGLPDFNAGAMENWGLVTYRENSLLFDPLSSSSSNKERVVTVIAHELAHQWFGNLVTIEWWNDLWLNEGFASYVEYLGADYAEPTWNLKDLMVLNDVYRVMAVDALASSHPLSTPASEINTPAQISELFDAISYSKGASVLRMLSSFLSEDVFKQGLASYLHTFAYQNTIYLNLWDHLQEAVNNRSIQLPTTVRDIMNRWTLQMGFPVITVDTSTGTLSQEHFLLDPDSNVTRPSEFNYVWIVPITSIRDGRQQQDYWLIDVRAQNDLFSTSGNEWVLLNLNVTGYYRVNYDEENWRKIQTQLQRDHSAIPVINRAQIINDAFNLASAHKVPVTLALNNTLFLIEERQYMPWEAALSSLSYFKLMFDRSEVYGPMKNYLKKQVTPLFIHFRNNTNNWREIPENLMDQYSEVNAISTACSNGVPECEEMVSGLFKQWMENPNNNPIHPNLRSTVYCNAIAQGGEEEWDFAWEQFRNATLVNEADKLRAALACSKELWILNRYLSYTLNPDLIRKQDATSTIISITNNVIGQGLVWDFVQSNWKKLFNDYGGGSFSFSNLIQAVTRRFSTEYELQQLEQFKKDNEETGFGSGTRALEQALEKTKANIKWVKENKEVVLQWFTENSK
From the text: (§9) The compounds of formula I or IA in which W is a C1-6 -alkylthio, a functionalized C1-6 -alkylthio for example a C1-6 -aminoalkylthio or a phenylthio as defined above by formula II are of particular utility for detecting protease/peptidase activity in biological systems. For example, the compounds are more sensitive chromogenic detectors of protease activity in biological liquids, such as serum, than is leucine p-nitroanilide. This utility depends on the release, by protease action, of the mercaptan, H-S-R^2, which is assayed quantitatively by colorimetry using Ellman's reagent as described in the examples.

leucine aminopeptidase = leucine aminopeptidase (Sus scrofa, UniProt P28839); test: Detector peptide as enzyme substrate, leucine aminopeptidase; type: biochemical
leucine aminopeptidase, sequence (P28839 whole entry): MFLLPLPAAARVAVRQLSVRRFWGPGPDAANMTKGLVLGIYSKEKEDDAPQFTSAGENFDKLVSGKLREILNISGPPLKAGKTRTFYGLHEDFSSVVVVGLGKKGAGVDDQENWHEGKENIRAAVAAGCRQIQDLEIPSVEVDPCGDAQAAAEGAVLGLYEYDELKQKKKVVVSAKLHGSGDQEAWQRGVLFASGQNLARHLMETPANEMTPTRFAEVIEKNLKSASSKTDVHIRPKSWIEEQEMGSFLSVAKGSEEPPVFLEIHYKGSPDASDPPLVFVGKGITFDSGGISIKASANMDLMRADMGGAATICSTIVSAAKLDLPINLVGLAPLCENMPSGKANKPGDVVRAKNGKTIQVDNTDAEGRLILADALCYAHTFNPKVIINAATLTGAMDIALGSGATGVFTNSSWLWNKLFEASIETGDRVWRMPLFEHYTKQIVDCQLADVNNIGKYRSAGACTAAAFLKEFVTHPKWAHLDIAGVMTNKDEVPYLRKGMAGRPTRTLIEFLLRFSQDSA
From the text: as §9

[4] = test system: representative fungal and bacterial organisms; test: Biological screen described in the utility example; type: cell-based; conditions: product found to be not completely deblocked
Protocol: A prototypal compound, L-alanyl-2-(5-fluorouracil-2-yl)-L-glycine, was evaluated against representative fungal and bacterial organisms.
as §7, §8, §5, §6
C. Bacteria (Disk diffusion method):
A method similar to A above but using E. coli was used which employs a M-9 medium (basic salts with ammonium ion as the nitrogen source and glucose as the carbon source).

trypsin = target: T1, trypsin (Bos taurus, UniProt P00760); test: Detector peptide as enzyme substrate, trypsin; type: biochemical
T1 construct: gene PRSS1
T1 sequence (P00760 24-246): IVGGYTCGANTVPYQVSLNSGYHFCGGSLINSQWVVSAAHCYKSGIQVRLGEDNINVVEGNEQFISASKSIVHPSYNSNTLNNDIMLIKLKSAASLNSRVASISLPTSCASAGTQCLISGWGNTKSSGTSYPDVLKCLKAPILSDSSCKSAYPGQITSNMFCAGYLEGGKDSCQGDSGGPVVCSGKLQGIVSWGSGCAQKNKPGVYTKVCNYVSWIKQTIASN
From the text: as §9

E. coli M. 2626 = test: Disk diffusion method, bacteria (Method C); type: cell-based; conditions: Escherichia coli
From the text: C. Bacteria (Disk diffusion method): A method similar to A above but using E. coli was used which employs a M-9 medium (basic salts with ammonium ion as the nitrogen source and glucose as the carbon source).

L-alanyl-2-(2,6-dicarboxy-pyridyl-4-)-ethylthio-D,L-glycine [Example 4]
Rate plus 100 μg enzyme (warhead release) ([1]; 1 mM peptide, phosphate buffer 4 mM pH 7, 100 μg leucine aminopeptidase): 504 p moles per min
λ(412) absorbance ([1]; Time (sec) 3, 1 mM peptide, phosphate buffer pH 7): 0.109
λ(412) absorbance ([1]; Time (sec) 4): 0.127
λ(412) absorbance ([1]; Time (sec) 5): 0.142
λ(412) absorbance ([1]; Time (sec) 6): 0.161
λ(412) absorbance ([1]; Time (sec) 7): 0.180
λ(412) absorbance ([1]; Time (sec) 8): 0.199
warhead release upon addition of Leucine Aminopeptidase ([1]; phosphate buffer pH 7.0, observation period 5 min): the warhead was released
Spontaneous Rate (warhead release) ([2]; 1 mM peptide, phosphate buffer 4 mM pH 7, no enzyme): 65 p moles per min
t 1/2 (stability) ([2]; 0.2 M phosphate buffer (pH 7.0)): ~ 5000 min
λ(412) absorbance ([2]; Time (sec) 0, 1 mM peptide, Ellman's reagent 4 mg/ml, phosphate buffer 4 mM pH 7): 0.090
λ(412) absorbance ([2]; Time (sec) 1, 1 mM peptide, phosphate buffer pH 7): 0.093
λ(412) absorbance ([2]; Time (sec) 2, 1 mM peptide, phosphate buffer pH 7): 0.095
non-enzymatic warhead release ([2]; pH 7.5, compared with pH 7.0): no noticeable increase
enzymatically catalyzed release rate relative to pH 7.0 [3]: twice the previous rate

C[C@H](N)C(=O)N[C@H](C(=O)O)n1cc(F)c(=O)[nH]c1=O [L-alanyl-2-(5-fluorouracil-1-yl)-L-glycine]
MIC (C. albicans; C. albicans B-310, 24 hours): 12.5 µg/mL (≈ 45.6 µM)
MIC (C. albicans; C. albicans strain 3153A): 12.5 µg/mL (≈ 45.6 µM)
MIC (C. albicans; C. albicans strain B 311): 12.5 µg/mL (≈ 45.6 µM)
MIC (C. albicans; C. albicans strain BC 759): 1.6 µg/mL (≈ 5.83 µM)
zone (Test A, disk diffusion; quantity not given) (Candida albicans; Conc. 1.5 μg/desk): 16 mm
zone (Test A, disk diffusion; quantity not given) (Candida albicans; Conc. 3.0 μg/desk): 20 mm
zone (Test A, disk diffusion; quantity not given) (Candida albicans; Conc. 6.0 μg/desk): 22 mm
zone (Test A, disk diffusion; quantity not given) (Candida albicans; Conc. 12.5 μg/desk): 26 mm
zone (Test A, disk diffusion; quantity not given) (Candida albicans; Conc. 25 μg/desk): 30 mm
zone size (Candida albicans; 62 μg/ml): 16 mm
zone size (Candida albicans; 125 μg/ml): 20 mm
zone size (Candida albicans; 250 μg/ml): 22 mm
zone size (Candida albicans; 500 μg/ml): 26 mm
zone size (Candida albicans; 1000 μg/ml): 30 mm

L-alanyl-2-(albendazole)-D,L-glycine [Example 22]
antiparasitic activity (Fasciola hepatica): comparable to, or greater than, albendazole
nematostatic activity (Caenorhabditis elegans): nematostatic activity was demonstrated
antiparasitic activity (Nematospiroides dubius): comparable to, or greater than, albendazole

C[C@H](N)C(=O)NC(Sc1ccccc1)C(=O)O (stereo partly drawn) [L-alanyl-L-(α-phenylthio)glycine]
use as enzyme substrate (aminopeptidase M): successfully used as enzyme substrates
use as enzyme substrate (leucine aminopeptidase): successfully used as enzyme substrates

C[C@H](N)C(=O)NC(C(=O)O)n1cc(F)c(=O)[nH]c1=O (stereo partly drawn) [L-alanyl-2-(5-fluorouracil-1-yl)-D-glycine]
MIC (C. albicans; C. albicans B-310, 24 hours): > 200 µg/mL
MIC (C. albicans; C. albicans strain 3153A, listed as L-D): > 100 µg/mL
MIC (C. albicans; C. albicans strain B 311, listed as L-D): > 100 µg/mL
MIC (C. albicans; C. albicans strain BC 759, listed as L-D): > 100 µg/mL
zone (Test A, disk diffusion; quantity not given) (Candida albicans; Conc. 1.5 μg/desk, listed as L,D): 0 mm
zone (Test A, disk diffusion; quantity not given) (Candida albicans; Conc. 3.0 μg/desk, listed as L,D): 0 mm
zone (Test A, disk diffusion; quantity not given) (Candida albicans; Conc. 6.0 μg/desk, listed as L,D): 0 mm
zone (Test A, disk diffusion; quantity not given) (Candida albicans; Conc. 12.5 μg/desk, listed as L,D): 0 mm
zone (Test A, disk diffusion; quantity not given) (Candida albicans; Conc. 25 μg/desk, listed as L,D): 0 mm
zone size (Candida albicans; 62 μg/ml): 0 mm
zone size (Candida albicans; 125 μg/ml): 0 mm
zone size (Candida albicans; 250 μg/ml): 0 mm
zone size (Candida albicans; 500 μg/ml): 0 mm
zone size (Candida albicans; 1000 μg/ml): 0 mm

C[C@H](N)C(=O)NC(C(=O)O)n1cc(F)c(=O)[nH]c1=O (mixture of isomers) [Example 2, L-alanyl-2-(5-fluorouracil-1-yl)-D,L-glycine]
MIC (C. albicans; C. albicans strain 3153A, listed as L-DL): 25 µg/mL
MIC (C. albicans; C. albicans strain B 311, listed as L-DL): 25 µg/mL
MIC (C. albicans; C. albicans strain BC 759, listed as L-DL): 6.3 µg/mL
zone (Test A, disk diffusion; quantity not given) (Candida albicans; Conc. 1.5 μg/desk, listed as L-DL): 12 mm
zone (Test A, disk diffusion; quantity not given) (Candida albicans; Conc. 3.0 μg/desk, listed as L-DL): 18 mm
zone (Test A, disk diffusion; quantity not given) (Candida albicans; Conc. 6.0 μg/desk, listed as L-DL): 20 mm
zone (Test A, disk diffusion; quantity not given) (Candida albicans; Conc. 12.5 μg/desk, listed as L-DL): 20 mm
zone (Test A, disk diffusion; quantity not given) (Candida albicans; Conc. 25 μg/desk, listed as L-DL): 20 mm

C[C@H](N)C(=O)NC(NNS(=O)(=O)c1cc(C(=O)O)cc(C(=O)O)c1)C(=O)O (stereo partly drawn) [Example 12, L-alanyl-2-(3,5-dicarboxy-phenylsulfohydrazino)-D,L-glycine]
activity in the biological screen [4]: not active

N-carbobenzoxy-L-alanyl-D,L-2-(3-aminopropylthio)-glycine, benzyl ester [Example 23]
substrate for trypsin (trypsin): shown to be substrates

O=c1[nH]cc(F)c(=O)[nH]1 [Example 5-FU, 5-fluorouracil, reference compound]
MIC (C. albicans; Candida albicans, C. albicans strain 3153A, read-out: MIC): 1 µg/mL (≈ 7.69 µM)
MIC (C. albicans; Candida albicans, C. albicans strain B 311, read-out: MIC): 4 µg/mL (≈ 30.8 µM)
MIC (C. albicans; Candida albicans, C. albicans strain BC 759, read-out: MIC): 1 µg/mL (≈ 7.69 µM)
zone (Test A, disk diffusion; quantity not given) (Candida albicans; Conc. 1.5 μg/desk): 22 mm
zone (Test A, disk diffusion; quantity not given) (Candida albicans; Conc. 3.0 μg/desk): 30 mm
zone (Test A, disk diffusion; quantity not given) (Candida albicans; Conc. 6.0 μg/desk): 30 mm
zone (Test A, disk diffusion; quantity not given) (Candida albicans; Conc. 12.5 μg/desk): 40 mm
zone (Test A, disk diffusion; quantity not given) (Candida albicans; Conc. 25 μg/desk): 44 mm
zone of inhibition at 1.5 µg/disc (E. coli M. 2626; conc. 1.5 μg/disk): 33 mm
zone of inhibition at 3 µg/disc (E. coli M. 2626; conc. 3.0 μg/disk): 38 mm
zone of inhibition at 6 µg/disc (E. coli M. 2626; conc. 6.0 μg/disk): 40 mm
zone of inhibition at 12.5 µg/disc (E. coli M. 2626; conc. 12.5 μg/disk): 41 mm
zone of inhibition at 25 µg/disc (E. coli M. 2626; conc. 25.0 μg/disk): 46 mm
